{"source": "patent US8012967B2", "about": "“Minor groove binders” (University of Strathclyde, priority 2006, dated 2011)", "key": {"[1]": {"test_system": "Streptococcus faecalis (NCTC 775)", "assay": "MIC, Streptococcus faecalis", "assay_type": "cell-based", "procedure": "(§1) The effects of compounds of the invention in relation to inhibiting the growth of various microorganisms was determined using methods known to those skilled in the art, for example in vitro methods as described in J. Med. Chem. 47, 2133-2156 (2004) and in vivo methods as described in J. Med. Microbiol. 46, 208-213 (1997), the disclosures of which documents are hereby incorporated by reference. In particular, minimum inhibitory concentrations (MICs) against microorganisms (e.g. S. Aureus, Streptococcus faecalis, Aspergillus niger, Candida albicans or Mycobacterium fortuitum) for compounds of the invention may be measured using procedures such as those described in A. J. Drummond and […] development of microbiological methods for phytochemical screening” Recent Res. Devel. […] The test wells on each 96 well microtitre plate were initially inoculated with culture medium (100 μL) using Mueller-Hinton Broth for antibacterial assays and Sabouraud Broth for antifungal assays. A solution of each test sample (100 μL) was added to one row of each plate and a series of doubling dilutions made for successive rows. Incubation was at 37° C. for antibacterial assay and 25° C. for antifungal assay. […] From the observed pattern of colour, the MIC was determined. All tests included sterility and growth controls."}, "[2]": {"test_system": "Staphylococcus aureus Strain 2 (NCTC 6571)", "assay": "MIC, Staphylococcus aureus Strain 2", "assay_type": "cell-based", "procedure": "as §1"}, "[3]": {"test_system": "clinical strains of S. aureus in the Scottish Clinical Isolates Collection", "assay": "MIC against collected clinical strains of S. aureus (BSAC03/04/05 (1)-(10))", "assay_type": "cell-based, Staphylococcus aureus", "description": "(§2) In particular, minimum inhibitory concentrations (MICs) against microorganisms (e.g. S. Aureus, Streptococcus faecalis, Aspergillus niger, Candida albicans or Mycobacterium fortuitum) for compounds of the invention may be measured using procedures such as those described in A. J. Drummond and R. D. Waigh “The development of microbiological methods for phytochemical screening” Recent Res. Devel. Phytochem. 4, 143-152 (2000), the disclosures of which document are hereby incorporated by reference.\n(§3) Sample dilutions were typically prepared by dissolving the test sample (2 mg) in sterile water (10 mL) to provide a working concentration of 200 μg/ml. The test wells on each 96 well microtitre plate were initially inoculated with culture medium (100 μL) using Mueller-Hinton Broth for antibacterial assays and Sabouraud Broth for antifungal assays. A solution of each test sample (100 μL) was added to one row of each plate and a series of doubling dilutions made for successive rows. Incubation was at 37° C. for antibacterial assay and 25° C. for antifungal assay. […] From the observed pattern of colour, the MIC was determined. All tests included sterility and growth controls.\nBSAC03/04/05 (1)-(10) refer to collected clinical strains of S. aureus in the Scottish Clinical Isolates Collection."}, "[4]": {"test_system": "Candida albicans (NCPF3179)", "assay": "MIC, Candida albicans", "assay_type": "cell-based", "procedure": "as §1"}, "[5]": {"test_system": "Mycobacter fortuitum (NCTC 10394)", "assay": "MIC, Mycobacter fortuitum", "assay_type": "cell-based", "procedure": "as §1"}, "[6]": {"test_system": "Aspergillus niger (IMI 1745)", "assay": "MIC, Aspergillus niger", "assay_type": "cell-based", "procedure": "as §1"}, "[7]": {"test_system": "Staphylococcus aureus Strain 1 (BSAC04(1)) (Clinical isolate from Glasgow Royal Infirmary)", "assay": "MIC, Staphylococcus aureus Strain 1", "assay_type": "cell-based", "procedure": "The effects of compounds of the invention in relation to inhibiting the growth of various microorganisms was determined using methods known to those skilled in the art, for example in vitro methods as described in J. Med. Chem. 47, 2133-2156 (2004) and in vivo methods as described in J. Med. Microbiol. 46, 208-213 (1997), the disclosures of which documents are hereby incorporated by reference.\nas §2, §3"}, "DNA": {"test_system": "DNA", "settings": "background statement, cited from earlier work; for DNA sequence preference: result in words; for Kd: read-out: dissociation constants (binding to DNA)"}, "[8]": {"settings": "value in parentheses, na = not active"}}, "data": [{"molecule": "COc1ccc(/C=C/c2ccc(C(=O)Nc3cc(C(=O)Nc4cc(C(=O)NCCN5CCOCC5)n(C)c4)n(C)c3)cn2)cc1", "note": "[Example 22]", "values": [{"measurement": "Minimum inhibitory concentrations (MICs), St. faecalis", "setting": "[1]; [8]", "result": 6.3, "unit": "µg/mL"}, {"measurement": "MIC", "setting": "[1]; value outside parentheses, read-out: Minimum inhibitory concentrations (MICs), St. faecalis", "result": 8.6, "unit": "µM"}, {"measurement": "Minimum inhibitory concentrations (MICs), S. aureus 2", "setting": "[2]; [8]", "result": 12.5, "unit": "µg/mL"}, {"measurement": "MIC", "setting": "[2]; value outside parentheses, read-out: Minimum inhibitory concentrations (MICs), S. aureus 2", "result": 17.2, "unit": "µM"}, {"measurement": "Minimum inhibitory concentrations (MICs)", "setting": "[3]; S. aureus BSAC culture year 2003 number 1", "result": 0.5, "unit": "µg/mL"}, {"measurement": "Minimum inhibitory concentrations (MICs)", "setting": "[3]; S. aureus BSAC culture year 2003 number 2", "result": 4, "unit": "µg/mL"}, {"measurement": "Minimum inhibitory concentrations (MICs)", "setting": "[3]; S. aureus BSAC culture year 2003 number 3", "result": 0.5, "unit": "µg/mL"}, {"measurement": "Minimum inhibitory concentrations (MICs)", "setting": "[3]; S. aureus BSAC culture year 2003 number 4", "result": 0.5, "unit": "µg/mL"}, {"measurement": "Minimum inhibitory concentrations (MICs)", "setting": "[3]; S. aureus BSAC culture year 2003 number 5", "result": 0.5, "unit": "µg/mL"}, {"measurement": "Minimum inhibitory concentrations (MICs)", "setting": "[3]; S. aureus BSAC culture year 2003 number 6", "result": 1, "unit": "µg/mL"}, {"measurement": "Minimum inhibitory concentrations (MICs)", "setting": "[3]; S. aureus BSAC culture year 2003 number 7", "result": 0.5, "unit": "µg/mL"}, {"measurement": "Minimum inhibitory concentrations (MICs)", "setting": "[3]; S. aureus BSAC culture year 2003 number 8", "result": 0.5, "unit": "µg/mL"}, {"measurement": "Minimum inhibitory concentrations (MICs)", "setting": "[3]; S. aureus BSAC culture year 2003 number 9", "result": 2, "unit": "µg/mL"}, {"measurement": "Minimum inhibitory concentrations (MICs)", "setting": "[3]; S. aureus BSAC culture year 2003 number 10", "result": 0.5, "unit": "µg/mL"}, {"measurement": "Minimum inhibitory concentrations (MICs)", "setting": "[3]; S. aureus BSAC culture year 2004 number 1", "result": 0.5, "unit": "µg/mL"}, {"measurement": "Minimum inhibitory concentrations (MICs)", "setting": "[3]; S. aureus BSAC culture year 2004 number 2", "result": 4, "unit": "µg/mL"}, {"measurement": "Minimum inhibitory concentrations (MICs)", "setting": "[3]; S. aureus BSAC culture year 2004 number 3", "result": 2, "unit": "µg/mL"}, {"measurement": "Minimum inhibitory concentrations (MICs)", "setting": "[3]; S. aureus BSAC culture year 2004 number 4", "result": 2, "unit": "µg/mL"}, {"measurement": "Minimum inhibitory concentrations (MICs)", "setting": "[3]; S. aureus BSAC culture year 2004 number 5", "result": 0.5, "unit": "µg/mL"}, {"measurement": "Minimum inhibitory concentrations (MICs)", "setting": "[3]; S. aureus BSAC culture year 2004 number 6", "result": 0.5, "unit": "µg/mL"}, {"measurement": "Minimum inhibitory concentrations (MICs)", "setting": "[3]; S. aureus BSAC culture year 2004 number 7", "result": 1, "unit": "µg/mL"}, {"measurement": "Minimum inhibitory concentrations (MICs)", "setting": "[3]; S. aureus BSAC culture year 2004 number 8", "result": 1, "unit": "µg/mL"}, {"measurement": "Minimum inhibitory concentrations (MICs)", "setting": "[3]; S. aureus BSAC culture year 2004 number 9", "result": 2, "unit": "µg/mL"}, {"measurement": "Minimum inhibitory concentrations (MICs)", "setting": "[3]; S. aureus BSAC culture year 2004 number 10", "result": 1, "unit": "µg/mL"}, {"measurement": "Minimum inhibitory concentrations (MICs)", "setting": "[3]; S. aureus BSAC culture year 2005 number 1", "result": 2, "unit": "µg/mL"}, {"measurement": "Minimum inhibitory concentrations (MICs)", "setting": "[3]; S. aureus BSAC culture year 2005 number 2", "result": 8, "unit": "µg/mL"}, {"measurement": "Minimum inhibitory concentrations (MICs)", "setting": "[3]; S. aureus BSAC culture year 2005 number 3", "result": 2, "unit": "µg/mL"}, {"measurement": "Minimum inhibitory concentrations (MICs)", "setting": "[3]; S. aureus BSAC culture year 2005 number 4", "result": 0.5, "unit": "µg/mL"}, {"measurement": "Minimum inhibitory concentrations (MICs)", "setting": "[3]; S. aureus BSAC culture year 2005 number 5", "result": 4, "unit": "µg/mL"}, {"measurement": "Minimum inhibitory concentrations (MICs)", "setting": "[3]; S. aureus BSAC culture year 2005 number 6", "result": 0.5, "unit": "µg/mL"}, {"measurement": "Minimum inhibitory concentrations (MICs)", "setting": "[3]; S. aureus BSAC culture year 2005 number 7", "result": 0.5, "unit": "µg/mL"}, {"measurement": "Minimum inhibitory concentrations (MICs)", "setting": "[3]; S. aureus BSAC culture year 2005 number 8", "result": 4, "unit": "µg/mL"}, {"measurement": "Minimum inhibitory concentrations (MICs)", "setting": "[3]; S. aureus BSAC culture year 2005 number 9", "result": 2, "unit": "µg/mL"}, {"measurement": "Minimum inhibitory concentrations (MICs)", "setting": "[3]; S. aureus BSAC culture year 2005 number 10", "result": 1, "unit": "µg/mL"}, {"measurement": "microbicidal activity against a number of different strains of Staphylococcus aureus", "setting": "[3]; result in words", "result": "displayed microbicidal activity"}, {"measurement": "Minimum inhibitory concentrations (MICs), C. albicans", "setting": "[4]; [8]", "result": 25, "unit": "µg/mL"}, {"measurement": "MIC", "setting": "[4]; value outside parentheses, read-out: Minimum inhibitory concentrations (MICs), C. albicans", "result": 34, "unit": "µM"}, {"measurement": "Minimum inhibitory concentrations (MICs), M. fortuitum", "setting": "[5]; [8]", "result": 50, "unit": "µg/mL"}, {"measurement": "MIC", "setting": "[5]; value outside parentheses, read-out: Minimum inhibitory concentrations (MICs), M. fortuitum", "result": 69, "unit": "µM"}, {"measurement": "Minimum inhibitory concentrations (MICs), A. niger", "setting": "[6]; [8]", "result": 50, "unit": "µg/mL"}, {"measurement": "MIC", "setting": "[6]; value outside parentheses, read-out: Minimum inhibitory concentrations (MICs), A. niger", "result": 69, "unit": "µM"}, {"measurement": "Minimum inhibitory concentrations (MICs), S aureus 1", "setting": "[7]; [8]", "result": 0.5, "unit": "µg/mL"}, {"measurement": "MIC", "setting": "[7]; value outside parentheses, read-out: Minimum inhibitory concentrations (MICs), S aureus 1", "result": 0.69, "unit": "µM"}]}, {"molecule": "Cn1cc(NC(=O)c2cc(NC(=O)CN=C(N)N)cn2C)cc1C(=O)NCCC(=N)N", "note": "[Netropsin, netropsin]", "values": [{"measurement": "DNA sequence preference", "setting": "DNA", "result": "preference for AT-rich regions of DNA"}, {"measurement": "Kd", "setting": "DNA", "result": "~10", "unit": "µM"}]}, {"molecule": "Cn1cc(NC(=O)c2cc(NC(=O)c3cc(NC=O)cn3C)cn2C)cc1C(=O)NCCC(=N)N", "note": "[distamycin]", "values": [{"measurement": "DNA sequence preference", "setting": "DNA", "result": "preference for AT-rich regions of DNA"}, {"measurement": "Kd", "setting": "DNA", "result": "~10", "unit": "µM"}]}]}
